# Measured values as given in patent publication US9861104B2, “Method for producing an aqueous suspension concentrate formulation of a pyripyropene insecticide” (BASF SE, priority 2012, dated 2018).
# Test: Conversion of the aqueous slurry into form B, followed by XRPD
# Type: physicochemical
# Settings: 30 parts Insecticide A / 70 parts water, stirred
# Protocol: The recorded 2θ values were used to calculate the stated interplanar spacings d. The intensity of the peaks (y-axis: linear intensity counts) is plotted versus the 2θ angle (x-axis in degrees 2θ). The formulation was prepared as follows: • (a) 30 parts by weight of Insecticide A, in the form of a powder, and 70 parts by weight of water were mixed in a vessel to obtain an aqueous slurry. The particle diameter of the particles was in the range 30-800 μm. […] The temperature of grinding head was controlled at 5° C. The milling was stopped when an average particle size of 1.5-2 μm (volume average) had been achieved (measured with Malvern Mastersizer 2000). To the thus obtained suspension the remaining antifoaming agent, the preservative and the thickener and water were added to with stirring to ensure homogeneous distribution of components. The amount of water was chosen that the final concentration of the pyripyropene derivative in the formulation was 100 g/l.
compound,measurement,setting,value
C[C@]1(COC(=O)C2CC2)[C@@H]2C[C@H](O)[C@@]3(C)Oc4cc(-c5cccnc5)oc(=O)c4[C@H](O)[C@@H]3[C@@]2(C)CC[C@@H]1OC(=O)C1CC1 [Insecticide A],Conversion time (conversion of at least 90% into form B),20° C.,<190 h
same,Conversion time (conversion of at least 90% into form B),40° C.,<48 h
same,Conversion time (conversion of at least 90% into form B),60° C.,12 h
